In patent publication US20040115160A1, “Quaternary ammonium esters for disinfection and preservation” (priority 2002, published 2004):

Key:
[1] = test system: Acanthamoeba polyphaga strain Ros cysts; assay: Acanthamoeba contact lens disinfectant challenge test assay; assay type: cell-based; details: 25 ppm
Procedure: Acanthamoeba polyphaga strain Ros were used in this study. Trophozoites were maintained at 30° C. in an axenic broth medium composed of 20.0 g Biosate™ (Becton Dickinson, United Kingdom), 5.0 g glucose, 0.3 g KH2PO4, 10 μg vitamin B12 and 15.0 mg L-methionine per litre of deionized water. The pH was adjusted to 6.5-6.6 with 1 M NaOH before autoclaving at 121° C. for 12 minutes. Penicillin and streptomycin were added to a final concentration of 150 μ/ml before use.
Cysts were prepared from trophozoite cultures using the axenic medium supplemented with 50 mM MgCl2. The encystment medium was inoculated with approximately 2×10^5 /ml trophoxoites for culture at 30° C. in a shaking incubator (100 rpm) for 7 days. Cells were enumerated using haemocytometer counting.
The challenge test assay protocol, as described by R. Hughes and S. Kilvington, Comparison of Hydrogen Peroxide Contact Lens Disinfection Systems and Solutions Against Acanthamoeba Polyphaga, Antimicrob. Agents Chemother. 45: 2038-2043, (2001), is set forth in detail below. The number of surviving organisms was calculated as described by L. J. Reed and H. Muench, A Simple Method for Estimating Fifty Percent Endpoints, Am. J. Hyg., 27: 493-497, (1938). Statistical analysis of the data was by One Way Analysis Of Variance (ANOVA).
1. Fifty ml polypropylene centrifuge tubes were aged overnight with 15 ml of disinfectant solution, i.e., ReNue™ 02 (Bausch & Lomb, Rochester, N.Y.). The tubes were then drained, the disinfectant solution discarded, and refilled with 10 ml of fresh disinfectant solution for testing.
2. To a flat-bottomed, 96 well microtitre plate having 8 columns labelled “A” through “H”, 180 μl of neutralizer, i.e., 0.1 percent Tween™ 80 (Baker, Inc., Phillipsburg, N.J.) in one-quarter strength Ringer's solution for biguanide based disinfectants, was added to the outer wells of columns A and H. 180 μl of one-quarter strength Ringer's solution was then added to the remaining inner wells of columns B through G.
3. Amoebae were adjusted to 5×10^6 /ml in one-quarter strength Ringer's solution and 100 μl (5×10^5) was added to 10 ml of disinfectant (5×10^4 /ml) or saline control.
4. At time intervals of 0, 1, 2, 3, 4, 6 and 24 hours:
i. vortexed tubes 5 seconds;
ii. in quadruplet, removed 20 μl (1000 cells) and added to neutralizer wells for the given time-point (i.e., column A, rows 9-12) and made serial 10-fold dilutions across the microtitre plate (i.e., to column D, rows 9-12); and
iii. repeated for each time point.
5. One drop of live E. coli from 3 ml pastette (25 μl of approximately 5×10^7 bacteria/ml) was then added to each well.
6. The plate was then incubated at 32° C. for up to 7 days.
7. The plate was inspected daily for 7 days for the presence of amoebal growth, either trophozoite replication or excystment and trophozoite replication, in the wells.
8. The number of surviving organisms was then estimated at each time interval by Reed and Muench computation and set forth below in Table 3.

[2] = test system: cells seeded in Millicell HA 13 mm inserts; assay: Sodium fluorescein permeability assay; assay type: cell-based; details: 20 min
Procedure: A 0.5 ml cell suspension containing 2×10^5 cells was seeded in Millicell HA 13 mm inserts (Millipore, Bedford, Mass.). The inserts were transferred into 24 well plates containing 0.5 ml of minimum essential medium (MEM) (BioWhittaker, Walkersville, Md.) per well. The plates were then incubated at 37° C. with 5 percent carbon dioxide for six days. Fresh media was added to the wells on days 2 through 6. On day 6 the inserts were used for the permeability assay.
Each insert was gently rinsed three times with 1 ml of Hanks' balanced salt solution (HBSS) using a 10 ml syringe, without a needle. An amount of 0.5 ml of test solution was added to separate inserts that had been placed in a fresh 24 well plate. Triplicate inserts were used for each test solution. The inserts were incubated in a 100 percent humidified chamber at 37 degrees Celsius for twenty minutes. Each series of triplicate samples was handled sequentially to allow exact timing of the treatment and subsequent steps. After incubation, each insert was individually rinsed five times with 1 ml HBSS using a 10 ml syringe without a needle, and then placed in a fresh 24 well plate containing 0.5 ml HBSS in each well. To each insert was added 0.5 ml of sodium fluorescein (3 mg/100 ml in HBSS). The inserts were incubated at room temperature for twenty minutes, removed from the wells, and the amount of sodium fluorescein was measured using a fluorometer at […]. Triplicate negative controls (HBSS solution) and positive controls consisting of sodium dodecyl sulphate (SDS) in water were included during these evaluations. Sodium fluorescein permeability assay results for composition numbers 1 and 14 are summarized below in Table 4.

CCCCCCCCCCCCCC(=O)OCCC[N+](C)(C)Cc1ccccc1 [Compound 1, N-myristoyloxypropyl-N-benzyl-N,N-dimethylammonium chloride]
Amoebae Log Kill, Cysts ([1]; 1 Hr.): 3.30 Log | Amoebae Log Kill, Cysts ([1]; 4 Hr.): 3.30 Log | Sodium fluorescein permeability, Fluorescence Units ([2]; 5 ppm): 71 Fluorescence Units | Sodium fluorescein permeability, Fluorescence Units ([2]; 10 ppm): 71 Fluorescence Units | Sodium fluorescein permeability, Fluorescence Units ([2]; 15 ppm): 77 Fluorescence Units | Sodium fluorescein permeability, Fluorescence Units ([2]; 25 ppm): 76 Fluorescence Units | Sodium fluorescein permeability, Fluorescence Units ([2]; 100 ppm): 554 Fluorescence Units
